Data as given in US5783178A, “Polymer linked biological agents” (Supratek Pharma. Inc., priority 1994, dated 1998).
≈ marks a conversion by molar mass, not a printed value. Like-named read-outs stand apart in the source and are kept apart here.

Experiments:
[1] = Solution stability in PBS (dissolved daunorubicin monitored by fluorescence); assay type: physicochemical; settings: 37°, PBS pH 7.0, 0.2 μM
[2] = tested on: SKOV3 line of transformed cells (SK cells); test: Cytotoxicity towards SK cells (XTT); assay type: cell-based; settings: Homo sapiens
[3] = tested on: SKVLB cell line (SK-resistant cells); test: Cytotoxicity towards SK-resistant cells (XTT); assay type: cell-based
[4] = tested on: murine myeloma cell line Sp2/0 (Sp2); test: Cytotoxicity towards Sp2 cells (XTT); assay type: cell-based; settings: Mus musculus, Example 7
[5] = tested on: Sp2-resistant cell line; test: Cytotoxicity towards Sp2-resistant cells (XTT); assay type: cell-based, murine; settings: Mus musculus, Example 7
[6] = tested on: Sp2-resistant myeloma cells; test: Tumor treatment, Sp2-resistant tumors; assay type: in vivo, female Balb C mice; settings: i.v. at MTD
[7] = tested on: Sp2 myeloma cell line; test: Tumor treatment, Sp2 tumors; assay type: in vivo, female Balb C mice; settings: i.v. at MTD
[8] = tested on: MCF-7 line of human breast cancer cells; test: Micellar agent delivery, cytotoxicity against MCF-7; assay type: cell-based; settings: MCF7
[9] = tested on: MCF-7AU; test: Micellar agent delivery, cytotoxicity against MCF-7AU; assay type: cell-based; settings: Homo sapiens
[10] = tested on: Dox-MCF-7; test: Micellar agent delivery, cytotoxicity against Dox-MCF-7; assay type: cell-based; settings: Homo sapiens
[11] = in vivo; settings: mouse, ip
[12] = tested on: SK cells; test: Activity of conjugated TNFα on SK cells (XTT); assay type: cell-based; settings: 24 hours

Q: Which results are given for `COc1cccc2c1C(=O)c1c(O)c3c(c(O)c1C2=O)C[C@@](O)(C(C)=O)C[C@@H]3O[C@H]1C[C@H](N)[C@H](O)[C@H](C)O1` [Free daunorubicin, daunorubicin]?
A: I585 (% of initial) ([1]; 0 hours incubation): 100 % of initial; remaining at 6 h, 0.2 µM ([1]; 6 hours incubation, read-out: I585 (% of initial)): 92%; remaining at 27 h, 0.2 µM ([1]; 27 hours incubation, read-out: I585 (% of initial)): 89%; remaining at 43 h, 0.2 µM ([1]; 43 hours incubation, read-out: I585 (% of initial)): 68%; remaining at 78 h, 0.2 µM ([1]; 78 hours incubation, read-out: I585 (% of initial)): 54%; remaining at 120 h, 0.2 µM ([1]; 120 hours incubation, read-out: I585 (% of initial)): 37%; IC50 ([2]; SK-OV-3, Example 5, 1 h exposure, 4 days culture, daunorubicin content basis, read-out: IC50): 0.32 µg/mL (≈ 0.607 µM); IC50 ([2]; SK-OV-3, Example 6, methods of Example 5): 5.2 µg/mL (≈ 9.86 µM); IC50 ([3]; Example 5, 1 h exposure, 4 days culture, daunorubicin content basis): 2.55 µg/mL (≈ 4.83 µM); IC50 ([3]; Example 6, methods of Example 5): 45 µg/mL (≈ 85.3 µM); IC50 [4]: 0.22 µg/mL (≈ 0.417 µM); IC50 [5]: 2.6 µg/mL (≈ 4.93 µM); V/V0 ([6]; day 0 after first treatment): 1; V/V0 ([6]; day 3 after first treatment): 2.7; V/V0 ([6]; day 6 after first treatment): 3.4; V/V0 ([6]; day 8 after first treatment): 5.1; V/V0 ([6]; day 10 after first treatment): 6.6; V/V0 ([6]; day 13 after first treatment): 11.6; V/V0 ([6]; day 16 after first treatment): 20.9; V/V0 ([6]; day 20 after first treatment): 25.9; V/V0 ([6]; day 23 after first treatment): 38.4; V/V0 ([6]; day 27 after first treatment): 50.9; V/V0 ([6]; day 31 after first treatment): 68.3; V/V0 ([6]; day 34 after first treatment): 73.0; V/V0 ([6]; day 38 after first treatment): 83.4; V/V0 ([6]; day 42 after first treatment): 113.8; V/V0 ([6]; day 45 after first treatment): 111.9; V/V0 ([7]; day 0 after first treatment): 1; V/V0 ([7]; day 4 after first treatment): 1.5; V/V0 ([7]; day 7 after first treatment): 2.4; V/V0 ([7]; day 12 after first treatment): 8.8; V/V0 ([7]; day 14 after first treatment): 10.9; V/V0 ([7]; day 17 after first treatment): 16.8; V/V0 ([7]; day 21 after first treatment): 17.5; V/V0 ([7]; day 25 after first treatment): 16.1; V/V0 ([7]; day 28 after first treatment): 15.8; V/V0 ([7]; day 32 after first treatment): 15.9; V/V0 ([7]; day 35 after first treatment): 15.7; inhibition at 0.016 µg/mL [8]: 15%; inhibition at 0.08 µg/mL [8]: 43%; inhibition at 0.4 µg/mL [8]: 69%; inhibition at 2 µg/mL [8]: 91%; inhibition at 10 µg/mL [8]: 100%; inhibition at 50 µg/mL [8]: 100%; inhibition at 0.016 µg/mL [9]: 3%; inhibition at 0.08 µg/mL [9]: 9%; inhibition at 0.4 µg/mL [9]: 37%; inhibition at 2 µg/mL [9]: 65%; inhibition at 10 µg/mL [9]: 89%; inhibition at 50 µg/mL [9]: 100%; inhibition at 0.016 µg/mL [10]: 2%; inhibition at 0.08 µg/mL [10]: 7%; inhibition at 0.4 µg/mL [10]: 39%; inhibition at 2 µg/mL [10]: 62%; inhibition at 10 µg/mL [10]: 86%; inhibition at 50 µg/mL [10]: 100%; LD50 at 336 h [11]: 7 mg/kg; MTD at 336 h [11]: 5 mg/kg

Q: What does the source list for human tumor necrosis factorα [TNFα]?
A: Inhibition, % (± SD) ([12]; TNFα concentration 0.01 (unit not given)): 0%; Inhibition, % (± SD) ([12]; TNFα concentration 0.05 (unit not given)): 2 (± 2) %; Inhibition, % (± SD) ([12]; TNFα concentration 0.2 (unit not given)): 5 (± 3) %; Inhibition, % (± SD) ([12]; TNFα concentration 1.0 (unit not given)): 4 (± 4) %; Inhibition, % (± SD) ([12]; TNFα concentration 5 (unit not given)): 10 (± 5) %; Inhibition, % (± SD) ([12]; TNFα concentration 20 (unit not given)): 22 (± 5) %; Inhibition, % (± SD) ([12]; TNFα concentration 50 (unit not given)): 35 (± 7) %; Inhibition, % (± SD) ([12]; TNFα concentration 100 (unit not given)): 44 (± 6) %; Inhibition, % (± SD) ([12]; TNFα concentration 200 (unit not given)): 80 (± 14) %
